# Read-outs that look alike come from different tables or passages of the source.
# Experiments:
# IL-1β [1] = experiment: Inhibition of IL-1β expression in LPS-primed, ATP-treated dendritic cells; type: cell-based, C57BL/6J male mice; conditions: for IL-1β: LPS priming + 5 mM ATP
# Procedure: Bone marrow was extracted from the legs of six- to eight-week old C57BL/6J male mice, and subjected to red blood cell (RBC) lysis, followed by differentiation into dendritic cells in RPMI 1640 medium (10% fetal bovine serum (FBS) and 1% penicillin-streptomycin) along with 20 ng/ml granulocyte-macrophage colony-stimulating factor (GM-CSF) for six days. The dendritic cells at 1×10^6 cells/mL were treated with benfotiamine and fursultiamine at different concentrations of 0, 1, 10, and 100 and allithiamine at different concentrations of 0, 1, and 10 μM.
# The dendritic cells were subjected to pro-IL1b priming by the treatment with 500 ng/mL LPS for 3 hours, and then treated with benfotiamine at 0, 10, 50, or 100 and fursultiamine at 0, 10, 50, or 100 μM, for 15 minutes. Then, pro-IL1b was converted into IL-1β through pro-IL1b cleavage, followed by 5 mM ATP treatment for inducing inflammasome formation.
# TNFα [2] = experiment: Inhibition of TNFα expression in LPS-activated dendritic cells (ELISA of supernatants); type: cell-based, C57BL/6J male mice; conditions: for TNFα (pg/mL): 100 ng/mL LPS 18 h
# Procedure: (§1) The dendritic cells at 1×10^6 cells/mL were treated with benfotiamine and fursultiamine at different concentrations of 0, 1, 10, and 100 and allithiamine at different concentrations of 0, 1, and 10 μM.
# Thereafter, the dendritic cells were activated with 100 ng/mL LPS for 18 hours.
# CD40 = CD40 expression in CD11c+ dendritic cells by flow cytometry; type: cell-based, C57BL/6J male mice
# Procedure: as §1
# (§2) The dendritic cells were measured for CD40 and CD86 in CD11c+ cells by flow cytometry, and the results are shown in FIGS. 6A and 6B and Tables 5 and 6.
# TNFα [3] = experiment: Inhibition of TNFα expression in LPS-activated dendritic cells (ELISA of supernatants); type: cell-based, C57BL/6J male mice; conditions: for TNFα (pg/mL): dendritic cells, 100 ng/mL LPS 18 h; for TNFα: dendritic cells not stimulated by LPS; for TNFα expression level relative to LPS alone: LPS-activated dendritic cells
# CD86 [4] = experiment: CD86 expression in CD11c+ dendritic cells by flow cytometry; type: cell-based, C57BL/6J male mice
# Procedure: as §1, §2
# CD86 [5] = experiment: as above; type: cell-based, C57BL/6J male mice; conditions: 50 μM, 100 ng/mL LPS
# [6] = system: LPS-induced sepsis mouse model
# Procedure: (The signs of the moribund state: impaired mobility, inability to maintain upright position, prolonged lack of activity and labored breathing)
# Six- to eight-week old C57BL/6J male mice were grouped, each group containing seven mice. The whole experimental schedule is shown FIG. 1. The mice were fed fursultiamine 24 hours and 30 minutes before intraperitoneal injection of 40 mg/kg LPS, and then again administered fursultiamine 6 hours after the intraperitoneal injection, and then the survival rates of the mice were monitored and the results are shown in FIG. 2 and Table 1.
# IL-1β [7] = system: IL-1β
# [8] = 1 μM, dendritic cells, 100 ng/mL LPS
# [9] = 10 μM, dendritic cells, 100 ng/mL LPS
# [10] = 100 μM, dendritic cells not stimulated by LPS
# [11] = 100 μM, dendritic cells, 100 ng/mL LPS
structure (smiles),measurement,setting,value
"C/C(=C(\CCOP(=O)(O)O)SC(=O)c1ccccc1)N(C=O)Cc1cnc(C)nc1N [Benfotiamine, benfotiamine]",IL-1β,IL-1β [1]; 10 μM,912.2951 pg/mL
same,IL-1β,IL-1β [1]; 50 μM,914.9398 pg/mL
same,IL-1β,IL-1β [1]; 100 μM,914.2512 pg/mL
same,Inhibition of the IL-1β expression increased by LPS (in words),IL-1β [1]; up to 100 μM,could not inhibit
same,TNFα (pg/mL),"TNFα [2]; 1 μM, dendritic cells","4,909.05 pg/mL"
same,TNFα (pg/mL),"TNFα [2]; 10 μM, dendritic cells","4,614.42 pg/mL"
same,TNFα (pg/mL),"TNFα [2]; 100 μM, dendritic cells","4,696.43 pg/mL"
same,Inhibition of the TNFα expression increased by LPS (in words),"TNFα [2]; dendritic cells, up to 100 μM",could not inhibit
same,CD40 (Mean fluorescence intensity; MFI),CD40; [8],"2,134 MFI"
same,CD40 (Mean fluorescence intensity; MFI),CD40; [9],"1,975 MFI"
same,CD40 (Mean fluorescence intensity; MFI),CD40; [10],248 MFI
same,CD40 (Mean fluorescence intensity; MFI),CD40; [11],"1,803 MFI"
same,Inhibition of the CD40 expression increased by LPS (in words),"CD40; dendritic cells, up to 100 μM",could not inhibit
same,TNFα (pg/mL),TNFα [3]; 50 μM,"4,806.97 pg/mL"
same,TNFα,TNFα [3]; 100 μM,84.82 pg/mL
same,CD86 (Mean fluorescence intensity; MFI),CD86 [4]; [8],"2,734 MFI"
same,CD86 (Mean fluorescence intensity; MFI),CD86 [4]; [9],"2,198 MFI"
same,CD86 (Mean fluorescence intensity; MFI),CD86 [4]; [10],382 MFI
same,CD86 (Mean fluorescence intensity; MFI),CD86 [4]; [11],430 MFI
same,Inhibition of the CD86 expression increased by LPS (in words),"CD86 [4]; dendritic cells, up to 100 μM",could not inhibit
same,CD86 (Mean fluorescence intensity; MFI),CD86 [5],"2,448 MFI"
"CC(=C(CCO)SSCC1CCCO1)N(C=O)Cc1cnc(C)nc1N (stereo in doubt) [Fursultiamine, fursultiamine]",IL-1β,IL-1β [1]; 10 μM,878.0075 pg/mL
same,IL-1β expression level relative to LPS + ATP alone,IL-1β [1]; 50 μM,about 85.8237%
same,IL-1β,IL-1β [1]; 50 μM,799.4891 pg/mL
same,IL-1β expression level relative to LPS + ATP alone,IL-1β [1]; 100 μM,about 63.6037%
same,IL-1β,IL-1β [1]; 100 μM,592.4987 pg/mL
same,TNFα (pg/mL),"TNFα [2]; 1 μM, dendritic cells","4,954.64 pg/mL"
same,TNFα expression level relative to LPS alone,"TNFα [2]; 10 μM, LPS-activated dendritic cells",about 68.60%
same,TNFα (pg/mL),"TNFα [2]; 10 μM, dendritic cells","3,600.63 pg/mL"
same,TNFα (pg/mL),"TNFα [2]; 100 μM, dendritic cells","1,628.26 pg/mL"
same,CD40 (Mean fluorescence intensity; MFI),CD40; [8],"1,992 MFI"
same,CD40 (Mean fluorescence intensity; MFI),CD40; [9],"2,026 MFI"
same,CD40 expression level relative to LPS alone,"CD40; 100 μM, dendritic cells",about 62%
same,CD40 (Mean fluorescence intensity; MFI),CD40; [10],253 MFI
same,CD40 (Mean fluorescence intensity; MFI),CD40; [11],"1,245 MFI"
same,TNFα expression level relative to LPS alone,TNFα [3]; 50 μM,about 57.22%
same,TNFα (pg/mL),TNFα [3]; 50 μM,"3,003.47 pg/mL"
same,TNFα expression level relative to LPS alone,TNFα [3]; 100 μM,about 31.02%
same,TNFα,TNFα [3]; 100 μM,38.37 pg/mL
same,CD86 (Mean fluorescence intensity; MFI),CD86 [4]; [8],"2,684 MFI"
same,CD86 (Mean fluorescence intensity; MFI),CD86 [4]; [9],"2,864 MFI"
same,CD86 expression level relative to LPS alone,"CD86 [4]; 100 μM, dendritic cells",about 13%
same,CD86 (Mean fluorescence intensity; MFI),CD86 [4]; [10],382 MFI
same,CD86 (Mean fluorescence intensity; MFI),CD86 [4]; [11],351 MFI
same,Survival despite LPS injection (in words),"[6]; fed 100 mg/kg, 40 mg/kg LPS i.p.",not dead
same,Percent survival (%),"[6]; fursultiamine 100 mg/kg fed 24 h and 30 min before and 6 h after 40 mg/kg LPS i.p., 0 d",100%
same,Percent survival (%),"[6]; fursultiamine 100 mg/kg fed, 40 mg/kg LPS i.p., 1 d",100%
same,Percent survival (%),"[6]; fursultiamine 100 mg/kg fed, 40 mg/kg LPS i.p., 2 d",100%
same,Percent survival (%),"[6]; fursultiamine 100 mg/kg fed, 40 mg/kg LPS i.p., 3 d",100%
same,Percent survival (%),"[6]; fursultiamine 100 mg/kg fed, 40 mg/kg LPS i.p., 4 d",100%
same,Percent survival (%),"[6]; fursultiamine 100 mg/kg fed, 40 mg/kg LPS i.p., 5 d",100%
same,Percent survival (%),"[6]; fursultiamine 100 mg/kg fed, 40 mg/kg LPS i.p., 6 d",100%
same,Percent survival (%),"[6]; fursultiamine 100 mg/kg fed, 40 mg/kg LPS i.p., 7 d",100%
same,CD86 (Mean fluorescence intensity; MFI),CD86 [5],"1,275 MFI"
same,IL-1β,"IL-1β [7]; fursultiamine (50 mg/kg as in table; 100 mg/kg in text) along with LPS, 0 h",4.483 pg/mL
same,IL-1β,"IL-1β [7]; fursultiamine along with LPS, 1 h",6.115 pg/mL
same,IL-1β,"IL-1β [7]; fursultiamine along with LPS, 3 h",96.715 pg/mL
same,IL-1β,"IL-1β [7]; fursultiamine along with LPS, 6 h",186.088 pg/mL
same,IL-1β expression level relative to the control without administration,"IL-1β [7]; fursultiamine along with LPS, 6 hours",about 54.936%
same,IL-1β,"IL-1β [7]; fursultiamine along with LPS, 12 h",495.824 pg/mL
same,IL-1β expression level relative to the control without administration,"IL-1β [7]; fursultiamine along with LPS, 12 hours",about 60.777%
same,IL-1β,"IL-1β [7]; fursultiamine along with LPS, 18 h",171.451 pg/mL
same,IL-1β expression level relative to the control without administration,"IL-1β [7]; fursultiamine along with LPS, 18 hours",about 29.673%

# Reference: US11872228B2, “Pharmaceutical composition containing thiamine derivative for prevention or treatment of sepsis” (KYUNGPOOK NATIONAL UNIVERSITY INDUSTRY-ACADEMIC COOPERATION …, priority 2021, dated 2024)
